Data from patent publication US11051515B2, “3-acyl-benzamides and their use as herbicides” (Bayer Aktiengesellschaft, priority 2017, dated 2021).

What was measured:
ALOMY [1] = test: Pre-emergence action against ALOMY; format: in vivo, Alopecurus myosuroides; conditions: Alopecurus myosuroides, 504 h; dosage 320 g/ha; pre-emergence; scored visually after 3 weeks vs untreated controls; 100% = plants have died, 0% = like control plants; read-out: Pre-emergence action against ALOMY (herbicidal activity in percent)
Method in brief: (§1)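 Seeds sown in sandy loam in wood-fiber pots and covered with soil. Greenhouse growth; visual damage scored after 3 weeks versus untreated controls (100% = dead, 0% = like control).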

CYPES = test: Pre-emergence action against CYPES; format: in vivo, Cyperus esculentus; conditions: Cyperus esculentus, 504 h; pre-emergence, dosage 320 g/ha, scored visually after 3 weeks vs untreated controls; read-out: Pre-emergence action against CYPES (herbicidal activity)
Method in brief: as §1

ECHCG = test: Pre-emergence action against ECHCG; format: in vivo, Echinochloa crus-galli; conditions: Echinochloa crus-galli, 504 h; pre-emergence, dosage 320 g/ha, scored visually after 3 weeks vs untreated controls; read-out: Pre-emergence action against ECHCG (herbicidal activity)
Method in brief: as §1

LOLRI [2] = test: Pre-emergence action against LOLRI; format: in vivo, Lolium rigidum; conditions: Lolium rigidum, 504 h, dosage 320 g/ha, scored visually after 3 weeks vs untreated controls, read-out: Pre-emergence action against LOLRI (herbicidal activity)
Method in brief: as §1

STEME [3] = test: Pre-emergence action against STEME; format: in vivo, Stellaria media; conditions: Stellaria media, 504 h; Dosage 320 g/ha, pre-emergence
Method in brief: as §1

HORMU [4] = test: Pre-emergence action against HORMU; format: in vivo, Hordeum murinum; conditions: Hordeum murinum, 504 h, Dosage 320 g/ha
Method in brief: as §1

ALOMY [5] = test: Post-emergence action against ALOMY; format: in vivo, Alopecurus myosuroides; conditions: Alopecurus myosuroides, 504 h; Dosage 80 g/ha, post-emergence
Method in brief: (§2)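 Weeds grown in sandy loam in greenhouse, treated at one-leaf stage (2–3 weeks after sowing) with WP or EC formulations sprayed as aqueous suspension/emulsion at 600 to […] water with 0.2% wetting agent. Visual rating after about 3 weeks versus untreated controls, as % herbicidal action (100% = plants dead, 0% = like control).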

LOLRI [6] = test: Post-emergence action against LOLRI; format: in vivo, Lolium rigidum; conditions: Lolium rigidum, 504 h, dosage 80 g/ha, visual assessment about 3 weeks after treatment vs untreated controls, read-out: Post-emergence action against LOLRI (herbicidal action in percent)
Method in brief: as §2

PHBPU = test: Post-emergence action against PHBPU; format: in vivo, Pharbitis purpurea; conditions: Ipomoea purpurea, 504 h; post-emergence, dosage 80 g/ha
Method in brief: as §2

STEME [7] = test: Post-emergence action against STEME; format: in vivo, Stellaria media; conditions: Stellaria media, 504 h; post-emergence, dosage 80 g/ha
Method in brief: as §2

HORMU [8] = test: Post-emergence action against HORMU; format: in vivo, Hordeum murinum; conditions: dosage 80 g/ha
Method: Seeds of monocotyledonous and dicotyledonous weed and crop plants are laid out in sandy loam soil in wood-fiber pots, covered with soil and cultivated in a greenhouse under good growth conditions. 2 to 3 weeks after sowing, the test plants are treated at the one-leaf stage. The compounds of the invention, formulated in the form of wettable powders (WP) or as emulsion concentrates (EC), are then sprayed onto the green parts of the plants in the form of an aqueous suspension or emulsion at a water application rate equating to […], with addition of 0.2% wetting agent. After the test plants have been left to stand in the greenhouse under optimal growth conditions for about 3 weeks, the action of the preparations is assessed visually in comparison to untreated controls (herbicidal action in percent (%): 100% activity=the plants have died, 0% activity=like control plants). […] At the same time, inventive compounds leave Gramineae crops such as barley, wheat, rye, millet/Sorghum, corn or rice virtually undamaged when applied post-emergence, even at high active ingredient dosages. In addition, some substances are also harmless to dicotyledonous crops such as soya, cotton, oilseed rape, sugar beet or potatoes. Some of the compounds according to the invention have high selectivity and are therefore suitable for controlling unwanted vegetation in agricultural crops by the post-emergence method. The data of Tables B18 to B34 below illustrate, in an exemplary manner, the […] herbicidal action of the compounds according to the invention, the herbicidal activity being stated in percent.

DIGSA [9] = test: Pre-emergence action against DIGSA; format: in vivo, Digitaria sanguinalis; conditions: dosage 320 g/ha, scored visually after 3 weeks vs untreated controls
Method in brief: as §1

DIGSA [10] = test: Post-emergence action against DIGSA; format: in vivo, Digitaria sanguinalis; conditions: dosage 80 g/ha, visual assessment about 3 weeks after treatment vs untreated controls
Method in brief: as §2

SMILES: CSc1c(C(=O)Nc2nnnn2C)ccc(C(F)F)c1C(=O)C1CC1 [1-67]
- pest or weed control at 320 g/ha (ALOMY [1]): 100%
- pest or weed control at 320 g/ha (CYPES): 90%
- pest or weed control at 320 g/ha (ECHCG): 100%
- pest or weed control at 320 g/ha (LOLRI [2]): 100%
- pest or weed control at 320 g/ha (STEME [3]): 100%
- pest or weed control at 320 g/ha (HORMU [4]): 80%
- pest or weed control at 80 g/ha (ALOMY [5]): 100%
- pest or weed control at 80 g/ha (LOLRI [6]): 100%
- pest or weed control at 80 g/ha (PHBPU): 80%
- pest or weed control at 80 g/ha (STEME [7]): 100%
- Post-emergence action against HORMU (HORMU [8]): 100

SMILES: CCn1nnnc1NC(=O)c1ccc(C(F)(F)F)c(C(=O)C2CC2)c1C [2-18, 3-(cyclopropylcarbonyl)-N-(1-ethyl-1H-tetrazol-5-yl)-2-methyl-4-(trifluoromethyl)benzamide]
- pest or weed control at 320 g/ha (ALOMY [1]): 100%
- pest or weed control at 320 g/ha (CYPES): 100%
- pest or weed control at 320 g/ha (ECHCG): 100%
- pest or weed control at 320 g/ha (LOLRI [2]): 100%
- pest or weed control at 320 g/ha (STEME [3]): 90%
- pest or weed control at 320 g/ha (HORMU [4]): 100%
- pest or weed control at 80 g/ha (ALOMY [5]): 100%
- pest or weed control at 80 g/ha (LOLRI [6]): 100%
- pest or weed control at 80 g/ha (PHBPU): 100%
- pest or weed control at 80 g/ha (STEME [7]): 100%
- Post-emergence action against HORMU (HORMU [8]): 100

SMILES: Cn1nnnc1NC(=O)c1ccc(C(F)(F)F)c(C(=O)C2CC2)c1C1CC1 [1-233]
- pest or weed control at 320 g/ha (ALOMY [1]): 100%
- Pre-emergence action against DIGSA (herbicidal activity) (DIGSA [9]): 100%
- pest or weed control at 320 g/ha (ECHCG): 100%
- pest or weed control at 320 g/ha (LOLRI [2]): 100%
- pest or weed control at 320 g/ha (STEME [3]): 100%
- pest or weed control at 320 g/ha (HORMU [4]): 100%
- pest or weed control at 80 g/ha (ALOMY [5]): 90%
- Post-emergence action against DIGSA (herbicidal action in percent) (DIGSA [10]): 100%
- pest or weed control at 80 g/ha (LOLRI [6]): 90%
- pest or weed control at 80 g/ha (PHBPU): 100%
- pest or weed control at 80 g/ha (STEME [7]): 90%
- Post-emergence action against HORMU (HORMU [8]): 80
